Consider 10 compounds from article PMC11360483, “Anti-Inflammatory, Antibacterial, Anti-Biofilm, and Anti-Quorum Sensing Activities of the Diterpenes Isolated from Clinopodium bolivianum” (Pharmaceutics, 2024).

Structures are written as SMILES. Values after ≈ are worked out from the molar mass of the structure shown. Values joined by “and” are separate entries in the source; they are usually repeats but may differ in a detail not shown here. Identical values can stand only once. Counter-ions that a name gives are not always drawn. Like-named read-outs stand apart in the source and are kept apart here. *1 amine or outer side, *2 acyl side, *3 side chain or, on linkers, in order; H or OH if unused. Where a SMILES comes first, the peptide text is derived from it. Bridges are numbered along the chain shown (N, C = ends). Roman numbers before positions name the chains, in order. [ ]: non-standard residue; d: D form. Actinocin(9to1) = Cc1c2oc3c(C)ccc(C(=O)[*:1])c3nc-2c(C(=O)[*:2])c(N)c1=O; NMeV = CN[C@H](C(=O)O)C(C)C; Sar = CNCC(=O)O

Data set [1] relates to NF-κB. In words: NF-κB inhibition assay (LPS-stimulated) in THP-1. Format: cell-based. Conditions: Homo sapiens, read-out: NF-κB Inhibition at 24 h IC50 ± SEM.
Data set [2] has as its system L. pneumophila. In words: microbe, parasite or virus in culture. It counts as cell-based. Conditions: Legionella pneumophila, 24 h.
Data set [3] concerns NF-κB. In words: NF-κB inhibition assay (LPS-stimulated) in MRC-5. Format: cell-based. Conditions: Homo sapiens, read-out: NF-κB Inhibition at 24 h IC50 ± SEM.
Data set [4] relates to C. violaceum. It counts as cell-based, Chromobacterium violaceum. The following applies: for % of Violacein Inhibition: at the Anti-QS concentration (compound 3 at 0.94 µM, compound 4 at 1.16 µM).
Data set [5] deals with S. aureus. Kind of data set: microbe, parasite or virus in culture. It counts as cell-based. The following applies: Staphylococcus aureus, 24 h.
Data set [6] relates to H. influenzae. It counts as cell-based, Haemophilus influenzae.
Data set [7] has as its system S. pneumoniae. Format: cell-based, Streptococcus pneumoniae.
Data set [8] relates to C. violaceum. In words: Anti-biofilm activity on C. violaceum. Format: cell-based, Chromobacterium violaceum.
Data set [9] relates to H. influenzae, L. pneumophila, S. pneumoniae, and S. aureus. Kind of data set: organism not typed. Format: cell-based.
Data set [10] relates to RAW 264.7 cells. Further details: method as in doi:10.1016/j.phytol.2020.01.005. The following applies: read-out: IC50, inhibition of nitric oxide (NO) production; cited from earlier work.
For data set [11], the system named is S. pneumoniae. Kind of data set: microbe, parasite or virus in culture. It counts as cell-based. The following applies: Streptococcus pneumoniae, 24 h.
The subject of data set [12] is S. aureus. Format: cell-based, Staphylococcus aureus.
For data set [13], the system named is NF-κB. Kind of data set: NF-κB inhibition assay (LPS-stimulated) in HBEC3-KT. It counts as cell-based. The following applies: Homo sapiens, 24 h, read-out: NF-κB Inhibition at 24 h IC50 ± SEM.
Data set [14] can be described thus: WST-1 cytotoxicity (viability) assay, control cell line. The following applies: human.
Data set [15] deals with H. influenzae. In words: microbe, parasite or virus in culture. It counts as cell-based. Conditions: Haemophilus influenzae, 24 h.
In data set [16] the test system is L. pneumophila. Format: cell-based, Legionella pneumophila.
Data set [17] relates to Hep3B cells. Further details: method as in PMID 37423053. Conditions: cited from earlier work.
A short description of data set [18]: WST-1 cytotoxicity assay, cell line not singled out. Conditions: human.
Data set [19] concerns Huh7 cells. Further details: method as in PMID 37423053. The following applies: cited from earlier work.
For data set [20], the system named is H. influenzae, L. pneumophila, S. pneumoniae, and S. aureus. It counts as cell-based. The following applies: strain not stated.
Data set [21] shares this test system. It counts as cell-based. Conditions: strain not stated. This is another data set of the same source.
Data set [22] can be described thus: WST-1 cytotoxicity (viability) assay. Conditions: human, WST-1, 24 h, MRC-5.
A short description of data set [23]: WST-1 cytotoxicity (viability) assay. The following applies: human, WST-1, 24 h, HBEC3-KT.
[24] abbreviates: MRC5, MRC-5, LPS-stimulated, 24 h.
The mark [25] stands for this setting: range over S. pneumoniae and S. aureus Gram-positive bacteria.
Setting [26] is: value given in the method for the compounds.
Where [27] appears, read: value given in the method for the extracts.

As to `CC(C)(O)c1ccc2c(c1)CC[C@H]1[C@](C)(C(=O)O)CCC[C@]21C` [Compound 4, 15-Hydroxydehydroabietic acid], the 50% inhibitory concentration (IC50) is 23.4 ± 0.71 µM in data set [1] (THP-1, LPS-stimulated, 24 h); 17.4 ± 0.82 µM in [3] (setting [24]); 50.9 µM in data set [10]; 10.8 ± 0.69 µM in data set [13] (LPS-stimulated). Besides, the MIC in data set [2] was 9.83 µM (≈ 3.11 µg/mL); in data set [5], 4.06 µM (≈ 1.28 µg/mL); in data set [9] (setting [25]), 2.06 to 4.06 µM; in [11], 2.06 µM (≈ 0.652 µg/mL); in data set [15] it was 15.4 µM (≈ 4.88 µg/mL). The Anti-QS in [4] came to 1.16 ± 0.06 µM. The “% of Violacein Inhibition” value in [4] worked out at 71.60%. Further, the “Quorum Sensing Inhibition at 24 h Anti-QS ± SEM” value is 2.39 ± 0.03 µM in data set [6], 7.78 ± 0.01 µM in data set [7], 10.08 ± 0.08 µM in data set [12] and 1.21 ± 0.04 µM in data set [16]. Also, the BIC in [8] came out at 5.81 ± 0.02 µM. The CC50 at 24 h in data set [14] came to 78.9 µM.
Turning to `O=C(O)c1cn(C2CC2)c2cc(N3CCNCC3)c(F)cc2c1=O` [CIP, Ciprofloxacin hydrochloride, reference compound], in [4], the Anti-QS was found to be 1.51 ± 0.01 µM and the “% of Violacein Inhibition” value worked out at 71.68%. Besides, the “violacein inhibitory concentration (CIV)” value in data set [4] (reference standard) came out at 1.51 µM. The same compound gave a BIC in data set [8] of 2.13 ± 0.01 µM.
Take `CC1COc2c(N3CCN(C)CC3)c(F)cc3c(=O)c(C(=O)O)cn1c23` (centres unmarked) [OFX, Ofloxacin, reference compound]: the MIC is 11.3 µg/mL and 26.8 µM in data set [2]; 10 µg/mL and 24.1 µM in [5]; 27.7 µM in [9] (read-out: MIC of positive control, for the compounds, strain not stated or range over the four strains); 10 µg/mL in data set [9] (read-out: MIC of positive control, value given in the method for the extracts, strain not stated); 9.03 µg/mL and 25.1 µM in data set [11]; 12.3 µg/mL and 28.4 µM in data set [15].
Take `CC1=C(O)C(=O)C=C2C1=CC=C1[C@@]2(C)CC[C@@]2(C)[C@@H]3C[C@](C)(C(=O)O)CC[C@]3(C)CC[C@]12C` [CEL, Celastrol, reference compound]: the 50% inhibitory concentration (IC50) in data set [1] (THP-1, 24 h) is 7.63 µM and 3.34 µg/mL; in data set [3] (MRC5, 24 h), 7.41 µM and 3.27 µg/mL; in data set [13], 7.15 µM and 3.24 µg/mL.
For `CC(C)(O)C1=CC2=CCC3[C@](C)(CCC[C@@]3(C)C(=O)O)C2CC1=O` (some centres unmarked) [Compound 1, 15-Hydroxy-12-oxo-abietic acid], the IC50 in data set [1] (THP-1, LPS-stimulated, 24 h) was determined as 43.4 ± 0.73 µM; in data set [3] (setting [24]), 39.01 ± 0.22 µM; in data set [13] (LPS-stimulated), 27.9 ± 0.89 µM. In addition, the MIC in data set [2] stood at 20.2 µM (≈ 6.72 µg/mL); in data set [5], 7.88 µM (≈ 2.62 µg/mL); in data set [11], 4.14 µM (≈ 1.38 µg/mL); in data set [15], 28.3 µM (≈ 9.42 µg/mL). In data set [4], this compound had an Anti-QS of 4.83 ± 0.05 µM. Besides, in data set [4], the “% of Violacein Inhibition” value is 20.45%. Further, the “Quorum Sensing Inhibition at 24 h Anti-QS ± SEM” value came to 4.64 ± 0.09 µM in data set [6], 9.89 ± 0.04 µM in data set [7], 12.24 ± 0.08 µM in data set [12] and 2.44 ± 0.09 µM in data set [16]. For the same compound, the BIC in [8] is on record as 11.31 ± 0.07 µM. This compound came in with a CC50 at 24 h in data set [14] of 88.4 µM.
`CC1=C2C=C3CCC4C(C)(C)CCC[C@]4(C)C3CC2OC1=O` (single isomer, unassigned; (-)) [Compound 3, (−)-Jolkinolide E]: the IC50 in data set [1] (THP-1, LPS-stimulated, 24 h) turned out to be 29.4 ± 0.48 µM; in data set [3] (setting [24]), 23.96 ± 0.21 µM; in data set [13] (LPS-stimulated), 18 ± 0.37 µM. For the same compound, the MIC in data set [2] is 1.71 µM (≈ 0.514 µg/mL); in data set [5], 1.09 µM (≈ 0.327 µg/mL); in data set [9] (setting [25]), 0.53 to 1.09 µM; in data set [11] it was 0.53 µM (≈ 0.159 µg/mL); in data set [15], 4.89 µM (≈ 1.47 µg/mL). The compound further displayed an Anti-QS in [4] of 0.94 ± 0.03 µM. Besides, the “% of Violacein Inhibition” value in [4] is 78.13%. Further, the “Quorum Sensing Inhibition at 24 h Anti-QS ± SEM” value is 0.64 ± 0.01 µM in [6], 3.01 ± 0.07 µM in [7], 4.88 ± 0.09 µM in data set [12] and 0.31 ± 0.03 µM in [16]. Moreover, in data set [8], the BIC is recorded as 1.62 ± 0.06 µM. The cytotoxicity in data set [17] is 37.23 µM; in [19] it was 39.53 µM. Moreover, the cytotoxic concentration (CC50) at 24 h is over 70 µM in [18] and 71.2 µM in [14].
On to `CC(C)C1=CC2=CC[C@@H]3[C@](C)(CCC[C@@]3(C)C(=O)O)[C@H]2C[C@@H]1O` [Compound 2, 12α-Hydroxyabietic acid], for which the IC50 in data set [1] (THP-1, LPS-stimulated, 24 h) came out at 32.6 ± 0.69 µM; in data set [3] (setting [24]) it was 26.9 ± 0.61 µM; in [13] (LPS-stimulated), 21.9 ± 0.23 µM. For the same compound, the MIC in data set [2] is 17.2 µM (≈ 5.49 µg/mL); in [5], 5.42 µM (≈ 1.73 µg/mL); in data set [11], 3.31 µM (≈ 1.05 µg/mL); in data set [15], 23.5 µM (≈ 7.47 µg/mL). Moreover, the Anti-QS in [4] amounted to 3.55 ± 0.06 µM. The “% of Violacein Inhibition” value in data set [4] turned out to be 48.88%. In addition, the “Quorum Sensing Inhibition at 24 h Anti-QS ± SEM” value worked out at 3.19 ± 0.04 µM in data set [6], 8.14 ± 0.05 µM in data set [7], 11.81 ± 0.07 µM in [12] and 1.95 ± 0.07 µM in [16]. The BIC in [8] came to 7.54 ± 0.05 µM. In data set [14], this compound registered a CC50 at 24 h of 84.3 µM.
Turning to `O=C1C=C(Br)/C(=C/Br)O1` [Furanone C-30, (Z)-4-Bromo-5-(bromomethylene)-2(5H)-furanone, reference compound], the “Quorum Sensing Inhibition at 24 h Anti-QS ± SEM” value in data set [6] is 11.81 ± 0.05 μM and 3.21 ± 0.02 μg/mL; in [7] it was 12.03 ± 0.08 μM and 3.44 ± 0.06 μg/mL; in [12] it was 12.67 ± 0.02 μM and 3.77 ± 0.04 μg/mL; in data set [16] it was 11.59 ± 0.03 μM and 3.03 ± 0.08 μg/mL. Also, the “Anti-QS value of positive control” value in [20] (setting [26]) amounted to 11.81 µM; in [20] (setting [27]), 3 µg/mL.
Regarding `N=C(NCCCCCCNC(=N)NC(=N)Nc1ccc(Cl)cc1)NC(=N)Nc1ccc(Cl)cc1.O=C(O)[C@H](O)[C@@H](O)[C@H](O)[C@H](O)CO.O=C(O)[C@H](O)[C@@H](O)[C@H](O)[C@H](O)CO` [CHG, chlorhexidine digluconate], the “BIC of reference control” value in data set [21] (setting [26]) turned out to be 2.23 µM; in data set [21] (setting [27]), 2000 µg/mL.
With `Cc1c2oc3c(C)ccc(C(=O)N[C@@H]4C(=O)N[C@H](C(C)C)C(=O)N5CCC[C@H]5C(=O)N(C)CC(=O)N(C)[C@@H](C(C)C)C(=O)O[C@@H]4C)c3nc-2c(C(=O)N[C@@H]2C(=O)N[C@H](C(C)C)C(=O)N3CCC[C@H]3C(=O)N(C)CC(=O)N(C)[C@@H](C(C)C)C(=O)O[C@@H]2C)c(N)c1=O` [ACTD, Actinomycin D, reference compound] (I: T[dV]P[Sar][NMeV] / II: T[dV]P[Sar][NMeV]; ester I:1-I:C, II:1-II:C; linker I:N-II:N via Actinocin(9to1)), the CC50 at 24 h in data set [22] was 0.017 µg/mL and 10 nM; in [18] (CC50, cell line not singled out, for the compounds), 0.008 µM; in data set [18] (CC50 of positive control, value given in the method for the extracts, cell line not stated) it was 0.01 µg/mL; in data set [14] (Viability (CC50), WST-1, 24 h, THP-1), 0.019 µg/mL and 10 nM; in [23] it was 0.014 µg/mL and 10 nM.
